In patent US20070053934A1, “Polyvalent multimeric composition containing active polypeptides, pharmaceutical compositions and methods of using the same” (priority 2005, published 2007):
Where a SMILES comes first, the peptide text is derived from it. Bridges are numbered along the chain shown (N, C = ends). Roman numbers before positions name the chains, in order. Where no end group is shown, it is not given here. Side-chain parts run from the residue outwards. [ ]: non-standard residue; d: D form. βAla = NCCC(=O)O

What was measured:
[1] = tested on: E. Coli (D31)
[2] = tested on: B. anthracis (Sterne 34F2); conditions: mean of three experiments
[3] = tested on: S Aureus (ATCC BAA-44); conditions: mean of three experiments
[4] = tested on: fresh sheep erythrocytes; assay: Hemolysis assay HD50 (Examples 1B and 2); assay type: cell-based; conditions: red cells of sheep
Experimental: Stock solutions of samples were prepared by the same procedure as in antibacterial assays. Hemolytic activity of monomeric peptides and multivalent ones were assessed on fresh sheep erythrocytes (Fitzgerald, Inc., MA) in 35 mM PBS buffer, 150 mM NaCl, pH 7.0. Peptide concentrations corresponding to 50% hemolysis were used as hemolytic dose (HD50) determined from dose-response curve (National Committee for Clinical Laboratory Standards. 2004, Methods for dilution antimicrobial susceptibility tests for bacteria that grow aerobically; sixth edition, approved standard M100-S14. National Committee for Clinical Laboratory Standards. Wayne, Pa.). Aliquots of cell suspension were mixed in eppendorf tubes with varying volumes of stocks and buffer for a total volume of 1 mL. Solutions containing same volume of DMSO without samples were used as control. These tubes were incubated at 37° C. for 1 hr, and then spun down at 3,000 rpm for 5 mins. The resulting supernatant was diluted by a factor of 40 in distilled water. The absorbances of the dilutions at 540 nm were measured in the Genesys 5 Spectrophotometer (Thermo Spectronic, Inc., NY). Zero hemolysis and 100% hemolysis controls were obtained by incubating the cells with buffer and 20% Tween, respectively. Hemolytic index (HI) was defined as HI=HD50/IC50. […]

[5] = tested on: S. aureus (ATCC BAA-44); conditions: ATCC BAA-44, 18 h
[6] = tested on: fresh sheep erythrocytes; assay type: cell-based; conditions: pH 7.2
Experimental: Hemolytic activity of model peptides was assessed on fresh sheep erythrocytes (Fitzgerald Inc., Concord, Mass.). Peptide concentrations yielding 50% hemolysis were used as hemolytic dose (HD50) determined from dose-response curves (Oren, Z., and Y. Shai. 1997. Selective lysis of bacteria but not mammalian cells by diastereomers of melittin: Structure-function study. Biochem. 36:1826-1835). […] The resulting supernatant was diluted by a factor of 40 in distilled water. The absorbances of the supernatant at λ=540 nm (OD540) were measured in the UV Spectrophotometer. Zero hemolysis and 100% hemolysis controls were obtained by incubating the cells with buffer and 1% Triton-X, respectively. Hemolytic index (HI) was defined as HI=HD50/IC50.

[7] = tested on: E. Coli (D31); conditions: read-out: IC50 E. coli; 50% inhibition of growth, 18 h; mean of three experiments
[8] = tested on: HIV; assay: Inhibition of HIV infectivity by gp340-derived peptides; assay type: cell-based; conditions: peptide concentrations up to 10 ug/ml
[9] = tested on: HIV-1 IIIB; assay: HIV inhibition assay, p24 readout
[10] = tested on: HIV-1 gp120MN V3 peptide P6283; conditions: Ca++-dependent, ELISA
[11] = tested on: HIV-1 BaL; assay: HIV inhibition assay, p24 readout; conditions: IL-2 stimulated human PBMCs, p24 in culture supernatant
[12] = tested on: H9 cells
[13] = tested on: HIV-1 gp120
[14] = tested on: HIV-1 NL4-3; assay: HIV inhibition assay, p24 readout; conditions: H9 cells, p24 in culture supernatant
[15] = tested on: HIV-1 attachment to and infection of H9 cells; assay: Viral attachment assay; assay type: cell-based; conditions: for cell-associated virus (HIV-1 attachment to target cells): H9 cells, cell-associated p24 after virus exposure
Experimental: FIG. 8. Effect of gp-340 or N-SRCR on HIV-1 attachment and infection of cells. The H9 cells were treated with increasing concentrations of gp-340 (A and B) or N-SRCR (C) before and during HIV-1 exposure. After 4 hours, the cells were extensively washed of virus and either treated with or without trypsin at room temperature for 10 min and lysed for total cell-associated p24 measurement or re-fed with fresh medium to continue culture for 4 days to determine infection (data only for gp-340 shown). The values were average of triplicate wells and bars represent standard errors.
0.5×10^6 H9 cells were pre-incubated with purified gp-340 ranging from 2 to 10 μg/ml, or N-SRCR at 0.5 μg/ml at 37° C. for 60 min before viral exposure at 50 ng/ml p24 at 37° C. for 3 hours. The exposed cells were washed repeatedly to remove unbound virus, either lysed for cell-associated viral p24 measurement, treated with trypsin for 5 min before lysis, or refed with culture medium and maintained in culture for an additional 4 days. Culture medium was collected, cleared of cellular debris, lysed and viral p24 was measured.

[16] = biological target: gp120 (Human immunodeficiency virus type 1 group M subtype B, UniProt P03375); conditions: read-out: Kd of gp340 binding to gp120; earlier studies of the applicants
[17] = H9 cells, p24 in culture supernatant

Compound: CC(=O)N[C@@H](Cc1c[nH]c2ccccc12)C(=O)N[C@@H](CCCNC(=N)N)C(=O)N[C@@H](Cc1c[nH]c2ccccc12)C(=O)N[C@@H](CCCNC(=N)N)C(=O)NCCCC[C@H](NC(=O)[C@H](CCCNC(=N)N)NC(=O)[C@H](Cc1c[nH]c2ccccc12)NC(=O)[C@H](CCCNC(=N)N)NC(=O)[C@H](Cc1c[nH]c2ccccc12)NC(C)=O)C(=O)NCCCC[C@H](NC(=O)[C@H](CCCCNC(=O)[C@H](CCCNC(=N)N)NC(=O)[C@H](Cc1c[nH]c2ccccc12)NC(=O)[C@H](CCCNC(=N)N)NC(=O)[C@H](Cc1c[nH]c2ccccc12)NC(C)=O)NC(=O)[C@H](CCCNC(=N)N)NC(=O)[C@H](Cc1c[nH]c2ccccc12)NC(=O)[C@H](CCCNC(=N)N)NC(=O)[C@H](Cc1c[nH]c2ccccc12)NC(C)=O)C(=O)NCCC(N)=O [(Ac—WRWR)4-lys2-Lys-Beta-Ala-NH2] (I: Ac-WRWRK([Arg-Trp-Arg-Trp-Ac])K[βAla]-NH2 / II: Ac-WRWRK([Arg-Trp-Arg-Trp-Ac]); amide I:6-II:C)
- Antimicrobial activity IC50 [1]: 9.5 mg/L
- Antimicrobial activity IC50 [2]: 15.5 mg/L
- Antimicrobial activity IC50 [3]: 12.5 mg/L
- Hemolytic activity HD50 [4]: 137 µg/mL

Compound: N=C(N)NCCC[C@H](NC(=O)[C@H](Cc1c[nH]c2ccccc12)NC(=O)[C@@H](N)CCCNC(=N)N)C(=O)N[C@@H](Cc1c[nH]c2ccccc12)C(N)=O [(RW)2—NH2] (H-RWRW-NH2)
- IC50 [5]: 210 µM
- HD50 Red blood cell [6]: 3700 µM
- IC50 [7]: 730 µM

Compound: N=C(N)NCCC[C@H](NC(=O)[C@H](Cc1c[nH]c2ccccc12)NC(=O)[C@H](CCCNC(=N)N)NC(=O)[C@H](Cc1c[nH]c2ccccc12)NC(=O)[C@H](CCCNC(=N)N)NC(=O)[C@H](Cc1c[nH]c2ccccc12)NC(=O)[C@H](CCCNC(=N)N)NC(=O)[C@H](Cc1c[nH]c2ccccc12)NC(=O)[C@@H](N)CCCNC(=N)N)C(=O)N[C@@H](Cc1c[nH]c2ccccc12)C(N)=O [(RW)5—NH2]
- IC50 [5]: 3.6 µM
- HD50 Red blood cell [6]: 76 µM
- IC50 [7]: 6.2 µM

Compound: N=C(N)NCCC[C@H](N)C(=O)N[C@@H](Cc1c[nH]c2ccccc12)C(N)=O [RW—NH2] (H-Arg-Trp-NH2)
- IC50 [5]: 2100 µM
- HD50 Red blood cell [6]: 8900 µM
- IC50 [7]: 4300 µM

Compound: GRVEYLXBGSW (GRVEVLYRGSW) [11 mer]
- inhibition of HIV infectivity (anti-HIV activity) [8]: low, but measurable anti-HIV activity

Compound: N-SRCR: recombinant N-terminal gp340 fragment: first SRCR domain and half of first SID, with His-6 and HSV gD tags, 35 kDa
- ID75 for IIIB [9, 17]: 2 mg/L
- ID90 for IIIB [9, 17]: not achieved
- binding to the peptide P6283 [10]: comparable to binding of gp-340
- estimated ID90 for BaL [11]: 1.1 mg/L
- concentration not toxic to H9 cells [12]: up to 10 μg/ml
- binding to immobilized gp120 ([13]; gp120 captured with antibody D7324, ELISA): shown to bind immobilized gp120
- binding to gp120 upon sCD4 treatment of gp120 ([13]; sCD4 pre-binding, detected by Ab-1527): significantly increased
- estimated ID90 for NL4-3 [14]: 1.5 mg/L
- cell-associated virus (HIV-1 attachment to target cells) [15]: did not effect viral attachment

Compound: QGRVEVLYRGSWGEVC [16 mer]
- inhibition of HIV infectivity (anti-HIV activity) [8]: only modest inhibition of HIV infectivity

Compound: RWRWRW-NH2 [(RW)3—NH2]
- IC50 [5]: 8 µM
- HD50 Red blood cell [6]: 210 µM
- IC50 [7]: 16 µM

Compound: RWRWRWRW-NH2 [(RW)4—NH2]
- IC50 [5]: 5.1 µM
- HD50 Red blood cell [6]: 100 µM
- IC50 [7]: 9.6 µM

Compound: gp340: 340 kDa salivary agglutinin glycoprotein of the SRCR superfamily; recombinant or purified from saliva
- blocking HIV-1 infection by expressed full length gp340 ([9]; culture supernatant of transfected 293 cells, compared with SAG from saliva): as active in blocking HIV-1 infection as SAG purified from human saliva
- viral replication in the treated cells ([15]; H9 cells cultured 4 days after exposure, p24): significantly inhibited
- cell-associated virus (HIV-1 attachment to target cells) [15]: not affected
- Kd [16]: 0.0058 µM
